Experimental data taken from ChEMBL document CHEMBL1201862, “PubChem BioAssay data set” (2004).
One block for each molecule: values may come before it. The source made the active and inactive calls.

Legend:
[1] = blockers of CRF-binding protein–CRF-R2 complex – cell-based, uHTS hits, 384-well, dose response (AID 651639); type: functional, Homo sapiens; settings: read-out: IC50_Mean
[2] = general mammalian cell viability loss – inhibitor set, cherry-pick, set 2, cytotoxicity control for miR-122 modulator project, dose response (AID 720697); type: functional, cell-based
[3] = activation of miR-122 Renilla sensor silencing – cell-based, Huh7 psiCHECK-miR122, Renilla luciferase, cherry-picked, dose response (AID 651956); type: functional;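 further: huh7 hepatoma cells stably carrying a psiCHECK-2 miR-122 sensor plasmid; renilla luciferase signal reporting endogenous miR-122 activity after 48 h compound exposure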
Melanocortin receptor 4 = Melanocortin receptor 4 (Homo sapiens, UniProt P32245); type: functional, cell-based;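 further: Cell-based assay with luminescence read-out, confirmatory dose-response testing for agonist activity of biased ligands at MC4R; human U2OS cells with tagged receptor and beta-arrestin; potency of agonists that increase receptor coupling to beta-arrestin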
H9c2 = assay: cells; type: functional, cell-based; settings: Rattus norvegicus, H9c2, Myocardium;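 further: confirmatory concentration-response retest of ultra-high-throughput screening hits for modulation of myocardial damage; cell death induced by hydrogen peroxide oxidative stress; compound pretreatment for 60 min then peroxide exposure for 2 h; potency is for protecting the cells against peroxide damage rather than for killing them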
[4] = target: T1, Apoptotic protease-activating factor 1 (Homo sapiens, UniProt O14727); assay: SAR analysis of small molecule Activators of Apaf-1 in a Fluorescent assay.; type: functional; settings: read-out: EC50_Mean;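 further: caspase-3 cleavage of fluorogenic Rh110 DEVD substrate downstream of apoptosome activation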
T1 sequence (O14727 whole entry): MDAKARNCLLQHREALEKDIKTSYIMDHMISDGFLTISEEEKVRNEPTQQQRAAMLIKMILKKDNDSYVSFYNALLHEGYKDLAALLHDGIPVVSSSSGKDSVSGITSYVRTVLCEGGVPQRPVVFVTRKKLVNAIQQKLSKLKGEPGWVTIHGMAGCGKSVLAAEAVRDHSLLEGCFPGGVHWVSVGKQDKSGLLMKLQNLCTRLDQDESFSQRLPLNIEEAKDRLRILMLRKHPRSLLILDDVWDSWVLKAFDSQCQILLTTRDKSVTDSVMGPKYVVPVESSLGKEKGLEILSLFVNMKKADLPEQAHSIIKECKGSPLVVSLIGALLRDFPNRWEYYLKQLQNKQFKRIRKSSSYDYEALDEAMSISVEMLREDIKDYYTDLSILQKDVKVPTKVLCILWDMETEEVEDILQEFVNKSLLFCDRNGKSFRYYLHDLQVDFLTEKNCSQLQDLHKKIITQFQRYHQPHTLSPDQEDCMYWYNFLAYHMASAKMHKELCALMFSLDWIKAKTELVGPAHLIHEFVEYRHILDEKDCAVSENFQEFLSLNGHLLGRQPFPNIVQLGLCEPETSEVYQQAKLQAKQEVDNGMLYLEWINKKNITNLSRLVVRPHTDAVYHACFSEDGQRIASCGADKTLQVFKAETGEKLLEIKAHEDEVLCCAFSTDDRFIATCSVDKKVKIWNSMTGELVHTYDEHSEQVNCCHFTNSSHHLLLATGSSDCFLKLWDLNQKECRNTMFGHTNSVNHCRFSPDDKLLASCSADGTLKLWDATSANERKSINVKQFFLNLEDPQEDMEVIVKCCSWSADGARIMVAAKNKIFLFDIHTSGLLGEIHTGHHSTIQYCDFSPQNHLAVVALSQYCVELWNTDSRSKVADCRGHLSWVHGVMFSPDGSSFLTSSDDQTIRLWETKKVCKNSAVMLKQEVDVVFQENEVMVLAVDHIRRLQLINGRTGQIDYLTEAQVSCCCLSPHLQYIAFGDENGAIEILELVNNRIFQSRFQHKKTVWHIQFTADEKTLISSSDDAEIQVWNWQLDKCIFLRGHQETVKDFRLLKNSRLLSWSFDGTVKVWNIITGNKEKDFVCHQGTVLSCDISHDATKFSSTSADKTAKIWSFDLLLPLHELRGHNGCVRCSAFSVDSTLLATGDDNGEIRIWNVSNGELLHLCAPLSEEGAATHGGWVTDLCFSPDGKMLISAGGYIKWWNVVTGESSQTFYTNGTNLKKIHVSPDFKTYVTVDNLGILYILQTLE

[5] = target: T2, Corticotropin-releasing factor receptor 2/Corticotropin-releasing factor-binding protein (Homo sapiens, UniProt P24387+Q13324); assay: activators of CRF receptor 2 with binding protein – uHTS hits, confirmation (AID 602473); type: functional; settings: read-out: EC50_Mean
T2 sequence (Q13324 whole entry): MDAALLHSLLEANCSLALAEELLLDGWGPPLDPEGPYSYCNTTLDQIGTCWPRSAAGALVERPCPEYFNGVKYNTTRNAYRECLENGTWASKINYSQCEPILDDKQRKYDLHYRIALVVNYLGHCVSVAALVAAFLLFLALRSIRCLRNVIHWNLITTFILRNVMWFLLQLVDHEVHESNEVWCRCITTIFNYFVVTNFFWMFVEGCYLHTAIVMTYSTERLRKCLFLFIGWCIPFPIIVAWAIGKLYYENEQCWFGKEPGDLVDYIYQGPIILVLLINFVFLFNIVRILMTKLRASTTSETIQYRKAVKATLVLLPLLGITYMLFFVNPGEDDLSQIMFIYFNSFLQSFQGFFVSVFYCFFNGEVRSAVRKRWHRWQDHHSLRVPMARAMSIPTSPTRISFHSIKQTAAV
T2 sequence (P24387 whole entry): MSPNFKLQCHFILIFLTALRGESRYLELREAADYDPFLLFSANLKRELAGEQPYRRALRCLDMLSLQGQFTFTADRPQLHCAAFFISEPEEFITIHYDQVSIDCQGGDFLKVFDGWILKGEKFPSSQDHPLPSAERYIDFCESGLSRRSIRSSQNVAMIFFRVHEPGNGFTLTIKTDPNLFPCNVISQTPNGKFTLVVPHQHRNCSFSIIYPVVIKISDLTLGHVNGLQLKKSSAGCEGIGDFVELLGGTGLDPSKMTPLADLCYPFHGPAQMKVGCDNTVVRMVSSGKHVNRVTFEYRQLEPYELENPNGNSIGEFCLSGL

[6] = target: T2, Corticotropin-releasing factor receptor 2/Corticotropin-releasing factor-binding protein; assay: Dose Response confirmation of uHTS hits for small molecule antagonists of the CRF-binding protein and CRF-R2 receptor complex.; type: functional; settings: read-out: IC50_Mean
[7] = target: T3, Sentrin-specific protease 8 (Homo sapiens, UniProt Q96LD8); type: functional
T3 sequence (Q96LD8 whole entry): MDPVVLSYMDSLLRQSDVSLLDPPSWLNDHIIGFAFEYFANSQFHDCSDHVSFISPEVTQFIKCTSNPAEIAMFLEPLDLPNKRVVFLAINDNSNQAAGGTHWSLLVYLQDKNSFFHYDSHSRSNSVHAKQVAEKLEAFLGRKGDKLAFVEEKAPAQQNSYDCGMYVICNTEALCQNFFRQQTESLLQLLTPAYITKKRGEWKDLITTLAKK

[8] = target: T3, Sentrin-specific protease 8; type: functional; remark: listed apart in the source
Fatty acid synthase [9] = target: T4, Fatty acid synthase (Homo sapiens, UniProt P49327); assay: inhibition of human FAS-TE enzyme activity – biochemical, kinetic fluorescence intensity, dose response (AID 624326); type: functional;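 further: rate of fluorescence rise from hydrolysis of a fluorogenic O-methyl fluorescein ester substrate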
Fatty acid synthase [10] = target: T4, Fatty acid synthase; assay: inhibition of human FAS-TE enzyme activity – biochemical, endpoint fluorescence intensity, uHTS hits, dose response (AID 624327); type: functional;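 further: fluorescence from hydrolysis of an O-methyl fluorescein acyl ester substrate by the enzyme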
[11] = Trypanosoma cruzi growth suppression in host cells – NIH3T3 host cells, beta-gal luminescence, confirmation (AID 2044); type: functional, cell-based;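 further: intracellular parasites grown in NIH/3T3 mouse fibroblasts as host cells; luminescent beta-galactosidase reporter signal from transgenic T. cruzi replicating inside host cells; inhibitors lower the luminescence signal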
[12] = target: T5, DNA repair and recombination protein RAD54-like (Homo sapiens, UniProt Q92698); assay: RAD54 Holliday junction migration blockers – biochemical, fluorescence, cherry-picked samples, dose series, confirmation (AID 651657); type: functional
T5 sequence (Q92698 whole entry): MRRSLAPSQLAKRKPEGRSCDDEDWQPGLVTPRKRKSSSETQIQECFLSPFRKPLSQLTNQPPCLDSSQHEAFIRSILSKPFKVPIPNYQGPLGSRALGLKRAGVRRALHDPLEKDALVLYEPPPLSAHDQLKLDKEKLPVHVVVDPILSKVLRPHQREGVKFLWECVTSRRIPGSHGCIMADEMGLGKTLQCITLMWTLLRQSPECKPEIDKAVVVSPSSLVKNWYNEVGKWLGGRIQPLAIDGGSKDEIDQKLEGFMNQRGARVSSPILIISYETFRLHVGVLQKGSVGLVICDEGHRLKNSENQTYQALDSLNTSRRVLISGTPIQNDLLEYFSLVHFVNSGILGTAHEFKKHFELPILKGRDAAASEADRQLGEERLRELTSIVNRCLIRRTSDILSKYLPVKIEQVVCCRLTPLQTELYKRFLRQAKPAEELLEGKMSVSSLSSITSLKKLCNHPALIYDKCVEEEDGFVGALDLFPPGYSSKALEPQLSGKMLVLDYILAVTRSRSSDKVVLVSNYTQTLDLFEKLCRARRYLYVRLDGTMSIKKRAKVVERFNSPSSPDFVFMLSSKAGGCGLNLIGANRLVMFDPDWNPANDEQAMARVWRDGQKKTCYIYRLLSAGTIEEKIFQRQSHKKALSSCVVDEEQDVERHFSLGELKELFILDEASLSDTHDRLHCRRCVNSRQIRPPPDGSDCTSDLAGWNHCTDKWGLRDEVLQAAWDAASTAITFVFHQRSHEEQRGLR

[13] = NIH3T3 cell viability loss – ATP luminescence, mouse fibroblasts, counter-screen, dose response (AID 2010); type: functional, cell-based;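 further: cells exposed to compound for about 90 hours before reading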
[14] = target: T6, Rac GTPase-activating protein 1 (Homo sapiens, UniProt Q9H0H5); assay: blockers of MgcRacGAP-driven Rac1 GTP hydrolysis – biochemical, ADP Hunter fluorescence, primary and confirmatory, confirmation (AID 624330); type: functional
T6 sequence (Q9H0H5 whole entry): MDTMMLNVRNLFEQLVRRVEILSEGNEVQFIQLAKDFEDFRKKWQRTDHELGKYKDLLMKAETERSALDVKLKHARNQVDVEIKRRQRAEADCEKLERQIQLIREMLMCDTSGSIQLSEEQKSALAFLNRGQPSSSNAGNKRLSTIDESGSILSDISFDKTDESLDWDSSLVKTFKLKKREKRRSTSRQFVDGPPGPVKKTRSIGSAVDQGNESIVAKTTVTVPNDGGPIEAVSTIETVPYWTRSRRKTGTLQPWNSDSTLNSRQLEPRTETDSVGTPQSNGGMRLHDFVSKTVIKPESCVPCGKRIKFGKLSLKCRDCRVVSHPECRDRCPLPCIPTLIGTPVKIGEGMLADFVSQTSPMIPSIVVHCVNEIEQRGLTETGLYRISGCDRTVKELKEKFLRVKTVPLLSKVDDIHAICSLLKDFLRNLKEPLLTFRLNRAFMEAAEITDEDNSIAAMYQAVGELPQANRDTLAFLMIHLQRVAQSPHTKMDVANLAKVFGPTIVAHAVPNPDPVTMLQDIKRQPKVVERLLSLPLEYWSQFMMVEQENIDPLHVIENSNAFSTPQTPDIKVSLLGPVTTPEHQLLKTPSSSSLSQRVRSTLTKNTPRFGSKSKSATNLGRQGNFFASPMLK

[15] = target: T7, Ubiquitin-conjugating enzyme E2 N (Homo sapiens, UniProt P61088); type: functional;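 further: Dose-response confirmation in a TR-FRET assay detecting UBC13-driven polyubiquitin chain formation, inhibition measured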
T7 sequence (P61088 whole entry): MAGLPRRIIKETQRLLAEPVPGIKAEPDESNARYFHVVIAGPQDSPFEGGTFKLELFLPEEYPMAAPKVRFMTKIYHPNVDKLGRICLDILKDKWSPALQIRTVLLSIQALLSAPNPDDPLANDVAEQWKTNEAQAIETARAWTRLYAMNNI

[16] = HEK-293T viability loss after treatment – luminescence, T-cell screen hits, cytotoxicity control for TCR NF-kB inhibitor project, dose response (AID 489026); type: functional, cell-based;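 further: cells exposed to compound about 14 hours before the viability readout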
[17] = viability of PTEN-deleted HCT116 cells – cell-based, HCT116 PTEN knockout, dose response (AID 1047); type: functional;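 further: HCT116 colon tumor cells with PTEN knocked out; cells exposed to compound for 60 hours before readout; potency for loss of cell viability measured by luminescence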
[18] = target: Heat shock protein HSP 90-alpha (Homo sapiens, UniProt P07900); type: functional, organism-based
[19] = viability of HCT116 lacking mutant beta-catenin – cell-based, human colon tumor, dose response (AID 1045); type: functional;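 further: HCT116 colon tumor cells with beta catenin knocked out; cells exposed to compound for 60 hours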
[20] = target: Eukaryotic translation initiation factor 4E (Mus musculus, UniProt P63073); assay: blockers of eIF4G binding by eIF4E – biochemical, TR-FRET, dose response (AID 855); type: functional;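 further: potency for disrupting eIF4E binding to eIF4GI seen as loss of FRET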
Sequence of Eukaryotic translation initiation factor 4E (P63073 whole entry): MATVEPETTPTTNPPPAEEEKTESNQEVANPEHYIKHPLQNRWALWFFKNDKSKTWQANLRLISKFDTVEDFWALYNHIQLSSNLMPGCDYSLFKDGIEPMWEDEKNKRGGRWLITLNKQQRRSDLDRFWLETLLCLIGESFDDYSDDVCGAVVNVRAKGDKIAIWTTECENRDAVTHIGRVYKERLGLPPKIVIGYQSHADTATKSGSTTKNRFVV

Sequence of Melanocortin receptor 4 (P32245 whole entry): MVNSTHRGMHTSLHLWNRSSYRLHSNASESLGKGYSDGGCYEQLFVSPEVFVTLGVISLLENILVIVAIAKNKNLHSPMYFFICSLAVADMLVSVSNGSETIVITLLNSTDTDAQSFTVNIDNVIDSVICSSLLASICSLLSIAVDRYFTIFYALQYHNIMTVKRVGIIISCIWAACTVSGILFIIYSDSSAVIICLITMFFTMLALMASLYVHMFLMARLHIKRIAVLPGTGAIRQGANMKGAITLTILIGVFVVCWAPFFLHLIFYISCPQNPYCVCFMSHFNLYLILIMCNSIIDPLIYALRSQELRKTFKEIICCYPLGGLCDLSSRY
T4 sequence (P49327 whole entry): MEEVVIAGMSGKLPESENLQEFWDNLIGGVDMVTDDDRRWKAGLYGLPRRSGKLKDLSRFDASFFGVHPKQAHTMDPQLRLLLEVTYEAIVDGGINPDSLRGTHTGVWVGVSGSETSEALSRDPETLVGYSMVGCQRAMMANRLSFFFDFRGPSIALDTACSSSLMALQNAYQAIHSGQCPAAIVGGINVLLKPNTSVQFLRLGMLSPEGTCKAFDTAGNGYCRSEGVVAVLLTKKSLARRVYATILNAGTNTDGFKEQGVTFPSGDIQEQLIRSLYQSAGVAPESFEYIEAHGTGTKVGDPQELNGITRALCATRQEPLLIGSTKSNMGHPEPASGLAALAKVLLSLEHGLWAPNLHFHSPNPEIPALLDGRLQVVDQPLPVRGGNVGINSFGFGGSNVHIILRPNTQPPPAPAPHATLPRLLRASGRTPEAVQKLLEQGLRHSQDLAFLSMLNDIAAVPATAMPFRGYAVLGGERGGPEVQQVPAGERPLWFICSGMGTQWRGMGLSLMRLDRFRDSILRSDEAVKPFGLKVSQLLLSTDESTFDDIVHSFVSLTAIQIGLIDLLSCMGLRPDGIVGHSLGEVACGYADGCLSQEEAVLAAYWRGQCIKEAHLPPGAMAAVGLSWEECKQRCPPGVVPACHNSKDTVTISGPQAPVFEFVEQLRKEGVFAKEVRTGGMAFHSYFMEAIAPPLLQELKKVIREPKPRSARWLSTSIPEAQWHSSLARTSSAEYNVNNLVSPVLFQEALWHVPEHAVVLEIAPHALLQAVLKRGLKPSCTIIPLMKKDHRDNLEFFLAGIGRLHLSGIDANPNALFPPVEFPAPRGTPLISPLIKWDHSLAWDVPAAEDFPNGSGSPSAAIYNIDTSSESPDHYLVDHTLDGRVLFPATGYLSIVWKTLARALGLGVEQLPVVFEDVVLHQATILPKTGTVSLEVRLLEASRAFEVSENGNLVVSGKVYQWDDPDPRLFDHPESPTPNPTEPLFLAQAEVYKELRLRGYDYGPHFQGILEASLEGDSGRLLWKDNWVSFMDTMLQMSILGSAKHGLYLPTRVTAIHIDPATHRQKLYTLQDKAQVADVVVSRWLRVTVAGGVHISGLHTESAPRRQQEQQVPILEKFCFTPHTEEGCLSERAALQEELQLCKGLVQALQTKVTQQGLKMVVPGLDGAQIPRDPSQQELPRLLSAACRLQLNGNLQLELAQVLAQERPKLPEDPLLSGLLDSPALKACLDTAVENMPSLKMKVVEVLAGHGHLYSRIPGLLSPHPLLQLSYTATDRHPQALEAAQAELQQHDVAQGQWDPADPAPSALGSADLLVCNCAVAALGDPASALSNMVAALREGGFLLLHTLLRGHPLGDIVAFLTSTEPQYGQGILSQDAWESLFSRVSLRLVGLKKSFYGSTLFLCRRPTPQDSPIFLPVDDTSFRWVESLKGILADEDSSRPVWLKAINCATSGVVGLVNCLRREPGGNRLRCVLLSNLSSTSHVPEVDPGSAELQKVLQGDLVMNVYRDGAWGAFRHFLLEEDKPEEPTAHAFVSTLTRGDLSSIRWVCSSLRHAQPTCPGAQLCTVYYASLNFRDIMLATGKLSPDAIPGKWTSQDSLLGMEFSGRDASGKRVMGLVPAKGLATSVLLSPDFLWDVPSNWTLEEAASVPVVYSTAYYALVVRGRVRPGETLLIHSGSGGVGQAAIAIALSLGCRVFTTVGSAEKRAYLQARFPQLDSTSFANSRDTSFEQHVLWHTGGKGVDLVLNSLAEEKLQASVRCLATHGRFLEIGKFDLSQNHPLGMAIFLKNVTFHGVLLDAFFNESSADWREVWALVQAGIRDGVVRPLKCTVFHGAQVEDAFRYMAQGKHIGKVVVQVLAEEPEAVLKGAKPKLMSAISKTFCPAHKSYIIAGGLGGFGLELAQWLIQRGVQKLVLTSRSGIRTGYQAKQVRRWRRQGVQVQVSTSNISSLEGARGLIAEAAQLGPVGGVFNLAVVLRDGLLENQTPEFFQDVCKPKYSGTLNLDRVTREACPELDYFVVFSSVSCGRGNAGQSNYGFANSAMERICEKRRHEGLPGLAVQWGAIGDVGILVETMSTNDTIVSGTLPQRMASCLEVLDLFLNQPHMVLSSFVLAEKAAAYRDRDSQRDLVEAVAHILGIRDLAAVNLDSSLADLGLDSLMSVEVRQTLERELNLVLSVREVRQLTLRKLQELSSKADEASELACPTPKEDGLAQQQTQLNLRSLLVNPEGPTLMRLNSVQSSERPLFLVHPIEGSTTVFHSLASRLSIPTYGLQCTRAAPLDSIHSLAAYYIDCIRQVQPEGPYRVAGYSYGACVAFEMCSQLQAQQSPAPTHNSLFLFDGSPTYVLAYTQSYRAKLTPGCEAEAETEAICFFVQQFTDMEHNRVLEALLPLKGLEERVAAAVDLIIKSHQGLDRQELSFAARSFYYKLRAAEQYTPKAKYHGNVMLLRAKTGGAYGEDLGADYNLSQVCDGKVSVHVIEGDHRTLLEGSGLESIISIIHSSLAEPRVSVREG

IC50 [1]: 5.1 µM (active)
SMILES: COc1ccc(C(=O)O/N=C(\N)Cc2ccc(Cl)c(Cl)c2)cc1OC

SMILES: COc1ccccc1C#Cc1ccc2c(c1)O[C@H](CN(C)Cc1cccnc1)[C@@H](C)CN([C@@H](C)CO)S2(=O)=O
AC50 [2]: 0.944 µM (active)
AC50 [3]: 25.6 µM (active)

SMILES: CC(=O)Nc1cc(-c2ccc(C(=O)NC3CC3)cc2)cn2c(-c3cccc(C(C)=O)c3)cnc12
EC50 (Melanocortin receptor 4): > 89.2 µM (inactive)
IC50 (H9c2): 16.3 µM (active)

EC50 [4]: > 100 µM (inactive)
SMILES: CC1CCCC(C)N1C(=O)C1CC(c2ccc(F)cc2)=NO1 (configuration not stated)

EC50 [4]: > 100 µM (inactive)
SMILES: O=C1CC2(CC(c3c(F)cccc3Cl)=NO2)C(=O)N1c1ccccc1 (configuration not stated)

EC50 [4]: > 100 µM (inactive)
SMILES: CCc1ccc(-c2ccc(=O)[nH]n2)cc1S(=O)(=O)CCC(=O)Nc1ccccc1OC

EC50 [5]: > 53 µM (inactive)
IC50 [6]: 2.72 µM (active)
IC50 [1]: 10.7 µM (active)
SMILES: Cc1ccc(-n2nnnc2SCc2nnc(-c3ccccc3Br)o2)c(C)c1

SMILES: O=C1SCCN1N=Cc1ccc([N+](=O)[O-])o1
IC50 [7]: > 100 µM (inactive)
IC50 [8]: 61 µM (inactive)

EC50 [5]: > 53 µM (inactive)
IC50 [6]: 4.39 µM (active)
IC50 (Fatty acid synthase [9]): 8.07 µM (active)
IC50 [1]: 8.96 µM (active)
IC50 (Fatty acid synthase [10]): 10.8 µM (active)
SMILES: COc1ccc([N+](=O)[O-])cc1N(CC(O)Cn1nnc2ccccc21)S(=O)(=O)c1ccc(C)cc1 (configuration not stated)

SMILES: CN(C)CCN(C(=O)CN1C(=O)c2ccccc2C1=O)c1nc2cc3c(cc2s1)OCCO3
EC50 (cells): 0.163 µM (active)
EC50 [11]: < 0.1 µM (active)
AC50 [12]: 57.6 µM (active)
EC50 [13]: > 60 µM (not active)

AC50 [12]: 30.6 µM (active)
SMILES: CN(C)CCN(C(=O)c1ccco1)c1nc2cc3c(cc2s1)OCCO3

SMILES: COCC(=O)N(C)C[C@H]1Oc2cc(-c3ccccc3F)ccc2S(=O)(=O)N([C@@H](C)CO)C[C@H]1C
AC50 [2]: 8.35 µM (active)
AC50 [3]: 3.15 µM (active)

SMILES: COc1cc(-c2cc(NC=O)c3ncc(-c4ccccc4)n3c2)cc(OC)c1OC
EC50 (Melanocortin receptor 4): > 89.2 µM (inactive)
IC50 (H9c2): > 79 µM (inactive)

IC50 [14]: 34.4 µM (active)
SMILES: COc1ccc(NCc2ccc([N+](=O)[O-])s2)c(OC)c1
IC50 [7]: 13.5 µM (active)
IC50 [8]: 11.6 µM (active)

SMILES: CCCCCCCCCCCCCCCC[n+]1ccc(C=NO)cc1
IC50 [15]: > 20 µM (inactive)
IC50 [16]: 67.7 µM (inactive)
EC50 [17]: 1.26 µM (active)
EC50 (Melanocortin receptor 4): > 3.3 µM (active)
AC50 [18]: 3.1 µM (active)
EC50 [19]: 0.884 µM (active)
IC50 [20]: 12.7 µM (active)
